In patent US20220402948A1, “EGFR INHIBITOR, COMPOSITION AND PREPARATION METHOD THEREFOR” (BETTA PHARMACEUTICALS CO., LTD., priority 2019, published 2022):
Read-outs that look alike come from different tables or passages of the source.

Legend:
[1] = target: Ba/F3 cells with EGFR Δ19del/T790M/C797S mutation gene stably overexpressed (Homo sapiens, UniProt P00533, T790M/C797S, cells depend on it, form not given); assay: Ba/F3-Δ19del/T790M/C797S cell proliferation assay (CellTiter Glo, 72 hours); format: cell-based; conditions: Table 2, read-out: EGFR Δ19del/T790M/C797S IC50
Chain of Ba/F3 cells with EGFR Δ19del/T790M/C797S mutation gene stably overexpressed (P00533 with tags, fused parts or gaps DEL746-750/T790M/C797S, form open): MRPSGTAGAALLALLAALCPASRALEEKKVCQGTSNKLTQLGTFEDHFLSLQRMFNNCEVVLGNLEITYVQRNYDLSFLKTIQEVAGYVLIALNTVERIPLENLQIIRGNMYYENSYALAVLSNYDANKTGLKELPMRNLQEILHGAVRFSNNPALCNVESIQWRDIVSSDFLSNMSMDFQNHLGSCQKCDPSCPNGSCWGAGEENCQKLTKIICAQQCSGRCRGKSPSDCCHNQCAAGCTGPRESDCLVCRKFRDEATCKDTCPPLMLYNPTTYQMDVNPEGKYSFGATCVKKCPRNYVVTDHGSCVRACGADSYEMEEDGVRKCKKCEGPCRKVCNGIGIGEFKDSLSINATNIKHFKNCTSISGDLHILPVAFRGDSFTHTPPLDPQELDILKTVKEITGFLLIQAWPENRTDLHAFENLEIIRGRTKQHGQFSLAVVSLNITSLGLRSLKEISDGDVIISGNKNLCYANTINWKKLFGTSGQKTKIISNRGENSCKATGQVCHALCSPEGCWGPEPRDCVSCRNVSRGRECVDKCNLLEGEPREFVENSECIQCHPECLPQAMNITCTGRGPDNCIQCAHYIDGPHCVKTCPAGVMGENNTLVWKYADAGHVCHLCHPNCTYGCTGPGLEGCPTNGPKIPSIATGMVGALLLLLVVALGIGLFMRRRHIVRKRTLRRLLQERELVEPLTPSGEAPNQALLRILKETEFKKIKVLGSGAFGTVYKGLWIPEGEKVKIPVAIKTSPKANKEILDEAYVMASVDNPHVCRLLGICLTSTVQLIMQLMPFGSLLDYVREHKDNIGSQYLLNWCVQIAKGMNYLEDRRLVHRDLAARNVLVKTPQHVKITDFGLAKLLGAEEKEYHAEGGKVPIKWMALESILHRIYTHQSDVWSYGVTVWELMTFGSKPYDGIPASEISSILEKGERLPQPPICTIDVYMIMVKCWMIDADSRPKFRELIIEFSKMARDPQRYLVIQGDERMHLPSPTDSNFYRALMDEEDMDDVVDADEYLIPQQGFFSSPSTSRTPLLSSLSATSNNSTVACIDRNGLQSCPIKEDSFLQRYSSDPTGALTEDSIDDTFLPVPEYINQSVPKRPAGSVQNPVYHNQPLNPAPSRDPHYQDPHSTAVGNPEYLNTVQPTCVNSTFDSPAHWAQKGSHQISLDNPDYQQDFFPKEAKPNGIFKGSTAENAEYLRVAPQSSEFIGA
In short: (§1)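 Ba/F3 cells stably overexpressing wild-type EGFR or EGFR Δ19del/T790M/C797S were seeded at 2000 cells/well and incubated 72 h with compound. Viability was read by CellTiter-Glo luminescence, and IC50 came from a four-parameter logistic fit of signal against log concentration.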

EGFR WT = EGFR WT (Homo sapiens, UniProt P00533); assay: EGFR WT kinase test (mobility variation analysis, Caliper EZ Reader); format: biochemical; conditions: kinase enzymatic activity, Table 1
Chain of EGFR WT (P00533 25-1210): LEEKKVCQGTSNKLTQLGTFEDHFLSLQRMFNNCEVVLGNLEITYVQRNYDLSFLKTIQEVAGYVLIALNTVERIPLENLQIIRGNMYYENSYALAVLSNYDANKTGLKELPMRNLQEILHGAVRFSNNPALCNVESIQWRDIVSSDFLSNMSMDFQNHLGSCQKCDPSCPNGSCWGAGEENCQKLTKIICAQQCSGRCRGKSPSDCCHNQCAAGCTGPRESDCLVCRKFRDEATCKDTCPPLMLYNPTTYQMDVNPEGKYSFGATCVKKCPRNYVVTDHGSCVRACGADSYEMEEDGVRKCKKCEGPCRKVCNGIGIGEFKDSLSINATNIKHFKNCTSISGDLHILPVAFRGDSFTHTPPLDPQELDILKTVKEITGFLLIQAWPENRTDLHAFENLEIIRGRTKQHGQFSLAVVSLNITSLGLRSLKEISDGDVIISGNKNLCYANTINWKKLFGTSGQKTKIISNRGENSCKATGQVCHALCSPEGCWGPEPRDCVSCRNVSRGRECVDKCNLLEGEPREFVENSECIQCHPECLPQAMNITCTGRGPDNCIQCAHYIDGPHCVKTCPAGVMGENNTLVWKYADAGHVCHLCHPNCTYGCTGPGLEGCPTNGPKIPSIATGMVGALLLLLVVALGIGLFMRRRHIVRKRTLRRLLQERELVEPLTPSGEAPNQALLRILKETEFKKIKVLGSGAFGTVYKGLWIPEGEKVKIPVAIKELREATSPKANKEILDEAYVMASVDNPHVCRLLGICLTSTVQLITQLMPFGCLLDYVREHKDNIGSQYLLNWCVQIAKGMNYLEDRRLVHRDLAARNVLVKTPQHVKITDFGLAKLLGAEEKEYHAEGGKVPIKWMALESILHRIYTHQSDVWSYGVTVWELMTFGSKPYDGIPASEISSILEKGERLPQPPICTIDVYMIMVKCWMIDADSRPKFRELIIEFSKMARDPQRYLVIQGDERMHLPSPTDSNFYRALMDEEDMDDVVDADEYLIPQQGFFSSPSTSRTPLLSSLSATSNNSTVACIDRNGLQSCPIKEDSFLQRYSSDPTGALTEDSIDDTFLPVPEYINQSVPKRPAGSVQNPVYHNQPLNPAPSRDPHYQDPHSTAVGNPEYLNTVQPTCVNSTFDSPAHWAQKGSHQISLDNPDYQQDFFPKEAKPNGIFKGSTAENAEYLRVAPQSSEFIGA
In short: (§2)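 Kinase pre-incubated with compound 10 minutes at room temperature, then ATP plus peptide substrate added; substrate conversion read by mobility shift after stop solution. Percent inhibition normalized to no-compound and no-enzyme controls; IC50 from variable-slope log(inhibitor) fit.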

IGF1R = IGF1R (Homo sapiens, UniProt P08069); assay: IGF1R kinase test (mobility variation analysis, Caliper EZ Reader); format: biochemical; conditions: kinase enzymatic activity, Table 1; read-out: EGFR IGF1R IC50
Chain of IGF1R (P08069 31-1367, species assumed): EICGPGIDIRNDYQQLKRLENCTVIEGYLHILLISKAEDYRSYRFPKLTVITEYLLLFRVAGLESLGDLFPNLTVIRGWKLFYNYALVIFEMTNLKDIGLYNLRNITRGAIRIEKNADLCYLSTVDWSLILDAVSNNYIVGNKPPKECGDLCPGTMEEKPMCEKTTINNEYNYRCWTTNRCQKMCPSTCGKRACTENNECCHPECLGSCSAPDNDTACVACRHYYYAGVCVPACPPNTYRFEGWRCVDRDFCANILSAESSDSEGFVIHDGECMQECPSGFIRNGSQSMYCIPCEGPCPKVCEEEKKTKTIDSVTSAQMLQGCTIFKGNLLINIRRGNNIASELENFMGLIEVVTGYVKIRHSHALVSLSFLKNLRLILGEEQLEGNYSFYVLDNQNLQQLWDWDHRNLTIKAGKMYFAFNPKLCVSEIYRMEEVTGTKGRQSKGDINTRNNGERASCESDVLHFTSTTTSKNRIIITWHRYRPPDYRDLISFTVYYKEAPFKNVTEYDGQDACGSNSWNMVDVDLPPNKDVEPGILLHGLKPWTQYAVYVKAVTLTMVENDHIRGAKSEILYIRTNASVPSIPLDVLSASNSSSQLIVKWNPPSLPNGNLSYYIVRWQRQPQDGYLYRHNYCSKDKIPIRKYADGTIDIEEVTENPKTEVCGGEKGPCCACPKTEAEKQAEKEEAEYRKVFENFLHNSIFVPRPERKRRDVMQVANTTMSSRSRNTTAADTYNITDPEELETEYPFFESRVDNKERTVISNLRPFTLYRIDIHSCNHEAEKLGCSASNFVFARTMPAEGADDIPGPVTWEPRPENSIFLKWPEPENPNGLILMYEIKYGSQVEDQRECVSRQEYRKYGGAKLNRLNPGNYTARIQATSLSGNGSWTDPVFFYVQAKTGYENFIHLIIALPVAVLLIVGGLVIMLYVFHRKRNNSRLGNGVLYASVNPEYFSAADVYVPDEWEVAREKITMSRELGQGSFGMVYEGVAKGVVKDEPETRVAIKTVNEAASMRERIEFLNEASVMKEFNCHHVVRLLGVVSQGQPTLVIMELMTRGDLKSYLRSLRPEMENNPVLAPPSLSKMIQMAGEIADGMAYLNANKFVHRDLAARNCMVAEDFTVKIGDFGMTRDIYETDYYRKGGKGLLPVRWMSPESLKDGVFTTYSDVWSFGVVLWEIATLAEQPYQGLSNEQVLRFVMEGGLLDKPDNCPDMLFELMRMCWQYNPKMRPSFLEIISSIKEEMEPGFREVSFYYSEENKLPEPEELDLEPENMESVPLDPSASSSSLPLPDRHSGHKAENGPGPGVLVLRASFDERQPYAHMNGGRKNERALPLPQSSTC
In short: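 Kinase preincubated 10 min at room temperature with compound (10-point 3-fold series, top 3000 nM), then ATP and substrate added and reacted at room temperature. Substrate conversion read by mobility-shift (Caliper EZ Reader); % inhibition vs no-enzyme and no-compound controls fitted to variable-slope curve for IC50.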

EGFRΔ19del/T790M/C797S = EGFRΔ19del/T790M/C797S (Homo sapiens, UniProt P00533, T790M/C797S, form not given); assay: EGFR Δ19del/T790M/C797S kinase test (mobility variation analysis, Caliper EZ Reader); format: biochemical; conditions: kinase enzymatic activity, Table 1
Chain of EGFRΔ19del/T790M/C797S (P00533 with tags, fused parts or gaps DEL746-750/T790M/C797S, form open): as the sequence (P00533 with tags, fused parts or gaps DEL746-750/T790M/C797S, form open) above
In short: as §2

A431 = A431 cell proliferation assay (CellTiter Glo, 72 hours); format: cell-based; conditions: cell proliferation, A431, 72 hours, Table 2, read-out: A431 IC50
In short: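 A431 cells (2000/well) exposed 72 h to compound at 1000 nM down to 0.2 nM in 3-fold steps, 0.1% DMSO (0.5% for some series). Viability by CellTiter-Glo luminescence; IC50 by four-parameter nonlinear regression.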

[2] = target: Ba/F3-EGFR wild-type cell line (Homo sapiens, UniProt P00533); assay: Ba/F3-EGFR wild-type cell proliferation assay (CellTiter Glo, 72 hours); format: cell-based; conditions: Table 2, read-out: EGFR WT IC50
In short: as §1

Row | Compound | GI50 [1] | IC50 (EGFR WT) | IC50 (IGF1R) | IC50 (EGFRΔ19del/T790M/C797S) | IC50 (A431; Homo sapiens, A-431, 72 h) | GI50 [2] | IC50 (A431)
1 | CCc1cc(Nc2ncc(Br)c(Nc3ccc(-c4cnn(C)n4)cc3P(C)(C)=O)n2)c(OC)cc1N1CCC(N2CCOCC2)CC1 [Compound K-040, (2-((5-Bromo-2-((5-ethyl-2-methoxy-4-(4-morpholinopiperidin-1-yl)phenyl)amino)pyrimidin-4-yl)amino)-5-(2-methyl-2H-1,2,3-triazol-4-yl)phenyl)dimethylphosphine oxide] | 14.5 nM | 24.5 nM | 134 nM | 0.3 nM | 6630 nM | 302 nM | –
2 | CCc1cc(Nc2ncc(Br)c(Nc3ccc(-c4cnn(C)c4)c(OC)c3P(C)(C)=O)n2)c(OC)cc1N1CCC(N2CCN(C)CC2)CC1 [Compound K-041, (6-((5-Bromo-2-((5-ethyl-2-methoxy-4-(4-(4-methylpiperazin-1-yl)piperidin-1-yl)phenyl)amino)pyrimidin-4-yl)amino)-2-methoxy-3-(1-methyl-1H-pyrazol-4-yl)phenyl)dimethylphosphine oxide] | 15.8 nM | 12.2 nM | 14.7 nM | 0.4 nM | 317 nM | 147 nM | –
3 | CCc1cc(Nc2ncc(Br)c(Nc3ccc(-c4ccccc4)cc3P(C)(C)=O)n2)c(OC)cc1N1CCC(N2CCOCC2)CC1 [Compound K-047, (4-((5-Bromo-2-((5-ethyl-2-methoxy-4-(4-morpholinopiperidin-1-yl)phenyl)amino)pyrimidin-4-yl)amino)-[1,1′-biphenyl]-3-yl)dimethylphosphine oxide] | 29.8 nM | 43 nM | 217 nM | 0.8 nM | 12600 nM | 95.6 nM | –
4 | CCc1cc(Nc2ncc(Br)c(Nc3ccc(-c4ccccc4C)cc3P(C)(C)=O)n2)c(OC)cc1N1CCC(N2CCOCC2)CC1 [Compound K-049, (4-((5-Bromo-2-((5-ethyl-2-methoxy-4-(4-morpholinopiperidin-1-yl)phenyl)amino)pyrimidin-4-yl)amino)-2′-methyl-[1,1′-biphenyl]-3-yl)dimethylphosphine oxide] | 38.4 nM | 31.7 nM | 432 nM | 0.8 nM | 1470 nM | 373 nM | –
5 | CCc1cc(Nc2ncc(Br)c(Nc3ccc(-c4ccccc4)c(C)c3P(C)(C)=O)n2)c(OC)cc1N1CCC(N2CCN(C)CC2)CC1 [Compound K-050, (4-((5-Bromo-2-((5-ethyl-2-methoxy-4-(4-(4-methylpiperazin-1-yl)piperidin-1-yl)phenyl)amino)pyrimidin-4-yl)amino)-2-methyl-[1,1′-biphenyl]-3-yl)dimethylphosphine oxide] | 20.6 nM | 12.3 nM | 121 nM | 1.1 nM | 1030 nM | 218 nM | –
6 | CCc1cc(Nc2ncc(Br)c(Nc3ccc(-n4cc(OC)cn4)cc3P(C)(C)=O)n2)c(OC)cc1N1CCC(N2CCN(C)CC2)CC1 [Compound K-054, (2-((5-Bromo-2-((5-ethyl-2-methoxy-4-(4-(4-methylpiperazin-1-yl)piperidin-1-yl)phenyl)amino)pyrimidin-4-yl)amino)-5-(4-methoxy-1H-pyrazol-1-yl)phenyl)dimethylphosphine oxide] | 19.1 nM | 32 nM | 268 nM | 0.2 nM | 1510 nM | 343 nM | –
7 | CCc1cc(Nc2ncc(Br)c(Nc3ccc(-c4cnn(CC)n4)cc3P(C)(C)=O)n2)c(OC)cc1N1CCC(N2CCN(C)CC2)CC1 [Compound K-062, (2-((5-Bromo-2-((5-ethyl-2-methoxy-4-(4-(4-methylpiperazin-1-yl)piperidin-1-yl)phenyl)amino)pyrimidin-4-yl)amino)-5-(2-ethyl-2H-1,2,3-triazol-4-yl)phenyl)dimethylphosphine oxide] | 23.9 nM | 18 nM | 126 nM | 0.2 nM | 1800 nM | 459 nM | –
8 | CCc1cc(Nc2ncc(Br)c(Nc3ccc(-n4cc(C)cn4)cc3P(C)(C)=O)n2)c(OC)cc1N1CCC(N2CCN(C)CC2)CC1 [Compound K-069, (2-((5-Bromo-2-((5-ethyl-2-methoxy-4-(4-(4-methylpiperazin-1-yl)piperidin-1-yl)phenyl)amino)pyrimidin-4-yl)amino)-5-(4-methyl-1H-pyrazol-1-yl)phenyl)dimethylphosphine oxide] | 37.4 nM | 26.7 nM | 219 nM | 0.67 nM | – | 355 nM | 1610 nM
9 | CCc1cc(Nc2ncc(Br)c(Nc3ccc(-c4ccc(C)cn4)cc3P(C)(C)=O)n2)c(OC)cc1N1CCC(N2CCN(C)CC2)CC1 [Compound K-071, (2-((5-Bromo-2-((5-ethyl-2-methoxy-4-(4-(4-methylpiperazin-1-yl)piperidin-1-yl)phenyl)amino)pyrimidin-4-yl)amino)-5-(5-methylpyridin-2-yl)phenyl)dimethylphosphine oxide] | 21 nM | 29.4 nM | 180 nM | 0.3 nM | – | 218 nM | 2540 nM
10 | CCc1cc(Nc2ncc(Br)c(Nc3ccc(-c4ccc(OC)s4)cc3P(C)(C)=O)n2)c(OC)cc1N1CCC(N2CCN(C)CC2)CC1 [Compound K-072, (2-((5-Bromo-2-((5-ethyl-2-methoxy-4-(4-(4-methylpiperazin-1-yl)piperidin-1-yl)phenyl)amino)pyrimidin-4-yl)amino)-5-(5-methoxythiophen-2-yl)phenyl)dimethylphosphine oxide] | 50.3 nM | 12 nM | 150 nM | 0.96 nM | 1930 nM | 446 nM | –

Molecules with a lower GI50 [1], results first:

Row | GI50 [1] | IC50 (EGFR WT) | IC50 (IGF1R) | IC50 (EGFRΔ19del/T790M/C797S) | IC50 (A431; Homo sapiens, A-431, 72 h) | GI50 [2] | IC50 (A431) | Compound
11 | 12.9 nM | 77.2 nM | 587 nM | 1 nM | 23100 nM | 156 nM | – | CCc1cc(Nc2ncc(Br)c(Nc3ccc(-c4ccccc4F)cc3P(C)(C)=O)n2)c(OC)cc1N1CCC(N2CCOCC2)CC1 [Compound K-048]
12 | 10.6 nM | 13.9 nM | 134 nM | 1.1 nM | 2300 nM | 105 nM | – | CCc1cc(Nc2ncc(Br)c(Nc3ccc(-c4cc(C)n(C)n4)cc3P(C)(C)=O)n2)c(OC)cc1N1CCC(N2CCN(C)CC2)CC1 [Compound K-066]
13 | 7.6 nM | 9.9 nM | 28.7 nM | 0.5 nM | 306 nM | 34.8 nM | – | CCc1cc(Nc2ncc(Br)c(Nc3ccc(-c4cnn(C)c4)c(C)c3P(C)(C)=O)n2)c(OC)cc1N1CCC(N2CCN(C)CC2)CC1 [Compound K-046, (6-((5-Bromo-2-((5-ethyl-2-methoxy-4-(4-(4-methylpiperazin-1-yl)piperidin-1-yl)phenyl)amino)pyrimidin-4-yl)amino)-2-methyl-3-(1-methyl-1H-pyrazol-4-yl)phenyl)dimethylphosphine oxide]
14 | 4.3 nM | 15.9 nM | 71 nM | 0.4 nM | 815 nM | 206 nM | – | CCc1cc(Nc2ncc(Br)c(Nc3ccc(-c4cnn(C)c4)cc3P(C)(C)=O)n2)c(OC)cc1N1CCC(N2CCOCC2)CC1 [Compound K-042, (2-((5-Bromo-2-((5-ethyl-2-methoxy-4-(4-morpholinopiperidin-1-vi)phenyl)amino)pyrimidin-4-yl)amino)-5-(1-methyl-1-pyrazol-4-yl)phenyl)-dimethylphosphine oxide]
15 | 4.3 nM | 14.2 nM | 30.2 nM | 0.5 nM | 456 nM | 127 nM | – | CCCc1cc(Nc2ncc(Br)c(Nc3ccc(-c4cnn(C)c4)cc3P(C)(C)=O)n2)c(OC)cc1N1CCC(N2CCN(C)CC2)CC1 [Compound K-043, (2-((5-Bromo-2-((2-methoxy-4-(4-(4-methylpiperazin-1-yl)piperidin-1-yl)-5-propylphenyl)amino)pyrimidin-4-yl)amino)-5-(1-methyl-1H-pyrazol-4-yl)phenyl)dimethylphosphine oxide]
16 | 3.8 nM | 8.2 nM | 38.2 nM | 0.3 nM | 280 nM | 166 nM | – | CCc1cc(Nc2ncc(Br)c(Nc3ccc(-c4cnn(C)c4)cc3P(C)(C)=O)n2)c(OC)cc1N1CCC(N(C)C)CC1 [Compound K-044, (2-((5-Bromo-2-((4-(4-(dimethylamino)piperidin-1-yl)-5-ethyl-2-methoxyphenyl)amino)pyrimidin-4-yl)amino)-5-(1-methyl-1H-pyrazol-4-yl)phenyl)dimethylphosphine oxide]
